Consider two molecules from patent publication US7063977B2, “Enzymatic resolution of t-butyl taxane derivatives” (Bristol-Myers Squibb Company, priority 2001, dated 2006).

The test system of one data set is tumors in mice. Particulars: oral administration; AACR 1999 abstract 1905; cited from earlier work.
The conditions of data set [1]: up to 160 mg/kg/day, Suffness et al.; cited from earlier work.
Data set [2] has as its system human tumor xenografts. Particulars: oral; xenografts implanted in athymic mice.
For data set [3], the system named is human tumor xenografts. Particulars: oral; xenografts implanted in athymic rates.
The subject of the next data set is sc M109. Particulars: oral, doses as high as 160 mg/kg/inj; toxic doses not reached; cited from earlier work.
For data set [4] the following is noted: oral administration; Eiseman et al., Suffness et al., quoted from WO 98/53811; cited from earlier work.

Molecules are shown by their SMILES. Read-outs that look alike come from different tables or passages of the source.

Turning to `CC(=O)O[C@H]1C(=O)[C@@]2(C)[C@H]([C@H](OC(=O)c3ccccc3)[C@]34OC(=O)O[C@H]3[C@H](OC(=O)[C@H](O)[C@H](CC(C)C)NC(=O)OC(C)(C)C)C(C)=C1C4(C)C)[C@]1(OC(C)=O)CO[C@@H]1C[C@@H]2O` [IDN-5109], the “oral activity against tumors in mice” value with tumors in mice is “oral activity”.
Consider `CC(=O)O[C@H]1C(=O)[C@@]2(C)[C@H]([C@H](OC(=O)c3ccccc3)[C@]3(O)C[C@H](OC(=O)[C@H](O)[C@@H](NC(=O)c4ccccc4)c4ccccc4)C(C)=C1C3(C)C)[C@]1(OC(C)=O)CO[C@@H]1C[C@@H]2O` [paclitaxel], for which the “antitumor activity on oral administration” value in data set [1] is “no evidence of antitumor activity”. Further, the “activity of orally administered drug against human tumor xenografts” value in the data set with human tumor xenografts [2] and in the data set on human tumor xenografts [3] was “unsuccessful” each time. For the same molecule, the “efficacy in murine tumor models (sc M109)” value in the data set with sc M109 is “without signs of any efficacy”. In data set [4], the “absorbed when administered orally” value is “less than 1%”.
